Patent US20210316010A1, “DRUG DELIVERY PRODUCT, COMPOSITION AND SYSTEM” (MASTER DYNAMIC LIMITED, priority 2018, published 2021)

Columns and labels:
HeLa cells = conditions: treatment for 5 h; cited from earlier work
SAS cells = experiment: Monolayer 2D SAS cellular uptake, confocal laser scanning microscopy; type: cell-based, Human; conditions: 4 hrs incubation, DOX 20 μg/ml
Excerpt: Intracellular trafficking and distribution of DOX within SAS cells were used to further investigate the outcomes, by using confocal laser scanning microscopy (CLSM), as shown in the images of FIGS. 21 and 21I.
The 50 nm ND fluorescence was excited with 488 nm, and collected in range 500-515 nm. The ND's fluorescence in this range corresponds predominantly to emission from diamond H^3 defect centers with emission peak near 505 nm, shown as green colour 206. The bright fields as evidenced, were also provided to reveal the morphologies of SAS cells.
Human Oral Squamous Carcinoma cell (SAS) cells were cultured in DMEM medium (Gibco, Invitrogen, UK). The medium was supplemented with 2 mM L-glutamine (Invitrogen, USA), 1.5 g/L sodium bicarbonate (Sigma, UK), 10% fetal bovine serum (Gibco/Life Technologies, Carlsbad, Calif., USA).
Cells were maintained under standard cell culture conditions in an incubator (Galaxy 170S, Eppendorf, USA) containing 95% air and 5% CO2 at 37° C. humid environment.
Culture medium was replaced with a fresh medium every 48 or 72 hr. […]
Unreacted samples were removed by washing. […] The emission of DOX was absorbed at 570-590 nm and ND was detected at 500-515 nm.

SAS MCTS = experiment: Penetration and distribution in SAS multicellular tumor spheroids (MCTS), confocal microscopy; type: cell-based, Human; conditions: after 1 day of incubation
Protocol: In order to investigate the penetration of DOX with different formulations (ND-DOX and ND-HSA-DOX) in tissue model in vitro, SAS MCTS were used to incubate with ND, free DOX, ND-DOX and ND-HSA-DOX.
The ND and DOX with different formulations complex uptake and distribution in SAS MCTS model was monitored by using CLSM.
The cell nuclei were stained with Hoechst […] which emits blue fluorescence (440 nm-484 nm), cell membrane were dyed with 3,3′-dipentyloxacarbocyanine iodide (DIOC'5), and the signal was collected in the 520-555 nm range, shown in red color.
In order to promote the multicellular tumor spheroids (MCTS) formation, SAS cells were seeded in Gravity TRAP ULA Plate, by Insphero, at a density of 5,000 cells per well and cultured at 37° C. with 5% CO2 for 3 days before drug treatment.
For the distributions of ND, DOX, ND-DOX and ND-HSA-DOX within MCTS were determined by confocal laser microscopy.
SAS MCTS were treated with ND, DOX, ND-DOX and ND-HSA-DOX for 4 days. Each day, one of treatment MCTS was harvested and fixed with 3.7% formaldehyde for 24 h. Washing the MCTS 3 time with PBS, and MCTS was incubated with DIOC'5 for 24 h. After washing 3 times, Hoechst 33342 was incubated with MCTS for 24 h. Then MCTS was observed by confocal microscopy.

For COc1cccc2c1C(=O)c1c(O)c3c(c(O)c1C2=O)C[C@@](O)(C(=O)CO)C[C@@H]3O[C@H]1C[C@H](N)[C@H](O)[C@H](C)O1.Cl [DOX, doxorubicin hydrochloride], the “intracellular location of DOX” value (HeLa cells) is listed as “located in nuclear of HeLa cells”, the “intracellular distribution of DOX” value (SAS cells) is listed as “distributed on cytoplasm” and the “penetration in SAS MCTS” value (SAS MCTS) is listed as “limited to the outer cell layers”.
